Assay results from ChEMBL document CHEMBL1201862, “PubChem BioAssay data set” (2004).
Activity calls are given as the source filed them.

Key:
[1] = target: Kallikrein-7 (Homo sapiens, UniProt P49862); experiment: Fluorescence Intensity-based biochemical primary high throughput dose response assay to identify activators of kallikrein-7 (K7) zymogen.
[2] = P. falciparum Dd2 growth inhibitors, dose response, SYBR Green, dry powder samples, set 9 (AID 1159568); type: functional, cell-based
[3] = THP-1 cell cytotoxicity, dose response, cytotoxicity control for Vif-APOBEC3G degradation inhibitor project, THP-1 cells (AID 1117359); type: functional; conditions: Human immunodeficiency virus 1, THP-1
[4] = target: T1, Aryl hydrocarbon receptor (Homo sapiens, UniProt P35869); experiment: Luminescence-based cell-based high throughput dose response assay for activators of the Aryl Hydrocarbon Receptor (AHR). [Related pubchem assays: 2796 (Primary screen (AHR activators in singlicate)), 2845 (Confirmation screen (AHR activators in triplicate)), 434939 (Counterscreen (PXR activators in triplicate)), 2804 (Summary (AHR activators))]; type: ADME
T1 sequence (P35869 whole entry): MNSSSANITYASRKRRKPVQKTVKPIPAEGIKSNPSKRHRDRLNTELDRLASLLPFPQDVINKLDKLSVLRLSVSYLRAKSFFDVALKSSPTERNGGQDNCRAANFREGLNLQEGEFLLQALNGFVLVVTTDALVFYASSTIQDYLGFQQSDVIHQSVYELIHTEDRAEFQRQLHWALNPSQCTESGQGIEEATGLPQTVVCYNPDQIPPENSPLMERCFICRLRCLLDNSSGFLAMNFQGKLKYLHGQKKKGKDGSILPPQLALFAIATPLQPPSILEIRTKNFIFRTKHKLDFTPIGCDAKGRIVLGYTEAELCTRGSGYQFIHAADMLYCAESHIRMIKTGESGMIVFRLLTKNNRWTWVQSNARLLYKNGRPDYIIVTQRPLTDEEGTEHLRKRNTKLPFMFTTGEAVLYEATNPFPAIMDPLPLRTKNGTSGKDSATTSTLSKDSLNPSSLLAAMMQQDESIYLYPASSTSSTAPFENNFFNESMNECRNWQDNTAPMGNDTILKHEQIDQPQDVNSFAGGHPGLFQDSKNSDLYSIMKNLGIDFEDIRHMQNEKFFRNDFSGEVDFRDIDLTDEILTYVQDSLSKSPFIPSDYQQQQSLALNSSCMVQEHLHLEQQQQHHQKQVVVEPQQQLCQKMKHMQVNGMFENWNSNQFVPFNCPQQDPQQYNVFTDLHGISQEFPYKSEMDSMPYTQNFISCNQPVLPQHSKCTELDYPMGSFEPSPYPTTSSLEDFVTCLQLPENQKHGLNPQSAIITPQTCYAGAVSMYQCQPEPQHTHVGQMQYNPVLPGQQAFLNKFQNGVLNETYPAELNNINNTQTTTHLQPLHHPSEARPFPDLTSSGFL

[5] = target: T2, Caspase-6 (Homo sapiens, UniProt P55212); experiment: human caspase-6 inhibitors, dose response, biochemical, VEID-R110 fluorescence, cherry-pick (AID 720632)
T2 sequence (P55212 whole entry): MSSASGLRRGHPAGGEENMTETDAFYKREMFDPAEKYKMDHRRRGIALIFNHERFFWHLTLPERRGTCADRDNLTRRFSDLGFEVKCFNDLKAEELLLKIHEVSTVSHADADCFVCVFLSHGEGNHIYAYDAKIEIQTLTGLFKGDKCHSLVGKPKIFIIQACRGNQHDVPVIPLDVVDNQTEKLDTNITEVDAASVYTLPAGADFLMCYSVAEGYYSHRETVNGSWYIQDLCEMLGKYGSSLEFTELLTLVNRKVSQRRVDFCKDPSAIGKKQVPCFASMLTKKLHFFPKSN

[6] = target: T3, Carboxy-terminal domain RNA polymerase II polypeptide A small phosphatase 1 (Homo sapiens, UniProt Q9GZU7); experiment: inhibitors of CTDSP1, concentration-response testing, biochemical assay, absorbance-based, actives from ultra-high-throughput screening (AID 540297); type: functional
T3 sequence (Q9GZU7 whole entry): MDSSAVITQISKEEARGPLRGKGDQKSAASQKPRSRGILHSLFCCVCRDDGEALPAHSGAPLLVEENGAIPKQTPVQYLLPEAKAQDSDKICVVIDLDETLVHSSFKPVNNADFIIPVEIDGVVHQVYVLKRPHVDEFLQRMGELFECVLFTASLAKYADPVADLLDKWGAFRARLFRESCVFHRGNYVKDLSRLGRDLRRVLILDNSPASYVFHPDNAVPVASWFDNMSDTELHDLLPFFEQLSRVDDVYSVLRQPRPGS

[7] = target: T4, Caspase-3 (Homo sapiens, UniProt P42574); type: functional;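 also: Dose-response selectivity test against caspase-3 for candidate inhibitors of sentrin-specific proteases (SENPs)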
T4 sequence (P42574 whole entry): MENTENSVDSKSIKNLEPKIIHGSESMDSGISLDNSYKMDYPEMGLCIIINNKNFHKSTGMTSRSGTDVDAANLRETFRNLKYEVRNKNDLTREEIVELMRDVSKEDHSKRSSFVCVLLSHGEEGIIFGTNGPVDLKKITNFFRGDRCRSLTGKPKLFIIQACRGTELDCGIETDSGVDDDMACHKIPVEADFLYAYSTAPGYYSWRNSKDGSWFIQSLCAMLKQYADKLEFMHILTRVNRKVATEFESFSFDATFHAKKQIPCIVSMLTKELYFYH

[8] = target: Nonstructural protein 1 (Influenza A virus, UniProt Q194T2); type: functional, Influenza A virus (A/California/07/2009(H1N1))
[9] = Luminescence Cell-Based Dose Response HTS to Identify Activators of Luciferase Translation or Activity in H4 […] Cells. [Related pubchem assays: 1829 (Project Summary), 1814 (Primary HTS)]; type: functional
[10] = cells; type: functional, cell-based
[11] = system: H4; experiment: Luminescence Cell-Based Dose Response HTS to Identify Activators of 5'UTR Stem-Loop Driven Prion Protein mRNA Translation in H4 Neuroglioblastoma Cells. [Related pubchem assays: 1829 (Project Summary), 1814 (Primary HTS)]; type: functional; conditions: Homo sapiens
[12] = Luminescence Cell-Based Dose Confirmation HTS to Identify Activators of 5'UTR Stem-Loop Driven Alpha-Synuclein mRNA Translation in H4 Neuroglioblastoma Cells. [Related pubchem assays: 1829 (Project Summary), 1814 (Primary HTS)]; type: functional
[13] = target: T5, Sentrin-specific protease 6 (Homo sapiens, UniProt Q9GZR1); type: functional;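 also: Luminescence-based dose-response confirmatory assay of SENP6 inhibition, following up an ultra-high-throughput screen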
T5 sequence (Q9GZR1 whole entry): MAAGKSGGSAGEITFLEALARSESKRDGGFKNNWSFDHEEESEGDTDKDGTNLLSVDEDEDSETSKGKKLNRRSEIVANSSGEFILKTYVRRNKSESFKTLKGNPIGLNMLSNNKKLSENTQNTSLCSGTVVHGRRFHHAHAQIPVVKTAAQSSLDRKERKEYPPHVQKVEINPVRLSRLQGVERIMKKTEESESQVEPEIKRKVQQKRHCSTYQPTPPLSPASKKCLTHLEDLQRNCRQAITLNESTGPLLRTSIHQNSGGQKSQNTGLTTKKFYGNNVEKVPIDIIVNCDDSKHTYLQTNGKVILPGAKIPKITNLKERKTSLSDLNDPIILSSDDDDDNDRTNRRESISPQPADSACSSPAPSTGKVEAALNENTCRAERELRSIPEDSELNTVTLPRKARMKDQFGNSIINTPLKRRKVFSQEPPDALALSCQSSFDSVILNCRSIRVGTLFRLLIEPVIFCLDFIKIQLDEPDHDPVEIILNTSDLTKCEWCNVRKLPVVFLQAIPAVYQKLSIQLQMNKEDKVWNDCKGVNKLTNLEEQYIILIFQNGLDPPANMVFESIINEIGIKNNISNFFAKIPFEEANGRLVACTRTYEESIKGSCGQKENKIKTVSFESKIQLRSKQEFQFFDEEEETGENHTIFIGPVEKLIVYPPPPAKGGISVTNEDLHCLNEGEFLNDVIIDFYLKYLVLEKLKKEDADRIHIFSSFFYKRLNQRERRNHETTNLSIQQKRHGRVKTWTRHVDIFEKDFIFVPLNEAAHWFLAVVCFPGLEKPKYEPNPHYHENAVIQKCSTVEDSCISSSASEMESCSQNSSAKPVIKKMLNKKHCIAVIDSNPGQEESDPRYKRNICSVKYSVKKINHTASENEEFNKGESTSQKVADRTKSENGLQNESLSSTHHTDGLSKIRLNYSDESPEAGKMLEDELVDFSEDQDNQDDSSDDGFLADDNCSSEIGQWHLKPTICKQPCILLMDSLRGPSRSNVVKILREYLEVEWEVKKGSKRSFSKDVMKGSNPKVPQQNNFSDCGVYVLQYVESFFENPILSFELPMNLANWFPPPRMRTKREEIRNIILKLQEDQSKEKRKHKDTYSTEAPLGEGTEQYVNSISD

[14] = target: T6, Oxysterols receptor LXR-beta (Homo sapiens, UniProt P55055); type: functional, cell-based;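 also: Cell-based luminescence dose-response assay of agonist activity at LXR, run as a confirmatory counterscreen to a daf-12 agonist screen; HEK293 cells with Gal4-LXR fusion and GAL4-driven luciferase reporter; agonist potency from rising luciferase signal of a Gal4-LXR reporter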
T6 sequence (P55055 whole entry): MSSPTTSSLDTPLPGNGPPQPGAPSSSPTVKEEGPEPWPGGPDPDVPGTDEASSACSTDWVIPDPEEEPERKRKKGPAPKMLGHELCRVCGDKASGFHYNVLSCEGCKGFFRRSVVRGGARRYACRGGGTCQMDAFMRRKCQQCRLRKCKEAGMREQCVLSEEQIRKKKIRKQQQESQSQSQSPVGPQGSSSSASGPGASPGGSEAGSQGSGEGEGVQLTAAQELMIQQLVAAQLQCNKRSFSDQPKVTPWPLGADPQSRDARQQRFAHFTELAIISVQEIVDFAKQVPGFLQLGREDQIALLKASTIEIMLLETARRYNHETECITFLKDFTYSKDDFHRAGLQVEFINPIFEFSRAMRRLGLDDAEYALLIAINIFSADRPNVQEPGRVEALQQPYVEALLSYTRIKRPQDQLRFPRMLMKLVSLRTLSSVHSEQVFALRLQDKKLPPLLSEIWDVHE

[15] = target: T7, Sentrin-specific protease 8 (Homo sapiens, UniProt Q96LD8); type: functional;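 also: luminescence read-out of SENP8 inhibition, dose-response confirmation following an ultra-high-throughput screen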
T7 sequence (Q96LD8 whole entry): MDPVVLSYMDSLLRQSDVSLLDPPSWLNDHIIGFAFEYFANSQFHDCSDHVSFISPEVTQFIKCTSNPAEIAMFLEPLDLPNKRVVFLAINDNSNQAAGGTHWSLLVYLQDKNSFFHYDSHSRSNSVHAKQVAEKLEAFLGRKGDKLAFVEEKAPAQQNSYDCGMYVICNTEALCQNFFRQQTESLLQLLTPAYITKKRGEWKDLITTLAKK

[16] = cells
[17] = target: T8, Sentrin-specific protease 7 (Homo sapiens, UniProt Q9BQF6); type: functional;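 also: Luminescence-based dose-response confirmation of ultra-high-throughput screening hits, measuring inhibition of SENP7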
T8 sequence (Q9BQF6 whole entry): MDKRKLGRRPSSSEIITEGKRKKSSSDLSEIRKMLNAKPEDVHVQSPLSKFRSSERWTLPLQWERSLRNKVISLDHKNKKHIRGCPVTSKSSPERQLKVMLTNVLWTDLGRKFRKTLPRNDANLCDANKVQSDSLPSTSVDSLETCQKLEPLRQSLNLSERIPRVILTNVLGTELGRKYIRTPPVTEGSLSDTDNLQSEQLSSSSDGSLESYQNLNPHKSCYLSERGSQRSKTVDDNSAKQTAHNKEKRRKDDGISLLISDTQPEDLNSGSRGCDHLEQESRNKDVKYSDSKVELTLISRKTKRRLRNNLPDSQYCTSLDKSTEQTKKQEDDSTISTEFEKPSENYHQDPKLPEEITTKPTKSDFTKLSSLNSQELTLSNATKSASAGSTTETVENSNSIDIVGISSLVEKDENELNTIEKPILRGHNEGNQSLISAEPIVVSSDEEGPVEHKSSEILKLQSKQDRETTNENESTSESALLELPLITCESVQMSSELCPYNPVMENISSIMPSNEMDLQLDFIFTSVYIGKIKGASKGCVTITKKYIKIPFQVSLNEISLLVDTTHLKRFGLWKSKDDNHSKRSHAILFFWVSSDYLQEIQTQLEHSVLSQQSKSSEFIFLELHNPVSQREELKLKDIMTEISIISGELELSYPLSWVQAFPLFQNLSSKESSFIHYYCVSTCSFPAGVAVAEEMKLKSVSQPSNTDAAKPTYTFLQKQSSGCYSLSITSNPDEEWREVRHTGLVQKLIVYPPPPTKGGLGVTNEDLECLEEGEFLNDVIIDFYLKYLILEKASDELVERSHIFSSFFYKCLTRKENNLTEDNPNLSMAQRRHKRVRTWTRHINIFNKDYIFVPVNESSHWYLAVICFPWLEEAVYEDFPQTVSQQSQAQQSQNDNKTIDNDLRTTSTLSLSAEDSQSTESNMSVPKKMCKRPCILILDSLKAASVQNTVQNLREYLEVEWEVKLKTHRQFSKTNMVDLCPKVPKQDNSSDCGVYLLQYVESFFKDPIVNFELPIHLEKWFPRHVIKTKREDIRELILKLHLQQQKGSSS

[18] = cells; type: functional, cell-based; remark: listed apart in the source

Chain of Kallikrein-7 (P49862 whole entry): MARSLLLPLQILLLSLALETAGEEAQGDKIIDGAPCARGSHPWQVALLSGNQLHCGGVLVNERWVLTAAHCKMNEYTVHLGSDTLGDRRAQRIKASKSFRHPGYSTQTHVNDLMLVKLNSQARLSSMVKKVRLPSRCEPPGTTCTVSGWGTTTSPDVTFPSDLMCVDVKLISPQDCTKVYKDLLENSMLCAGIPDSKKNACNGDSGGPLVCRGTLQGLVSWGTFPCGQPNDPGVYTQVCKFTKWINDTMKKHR
Chain of Nonstructural protein 1 (Q194T2 whole entry): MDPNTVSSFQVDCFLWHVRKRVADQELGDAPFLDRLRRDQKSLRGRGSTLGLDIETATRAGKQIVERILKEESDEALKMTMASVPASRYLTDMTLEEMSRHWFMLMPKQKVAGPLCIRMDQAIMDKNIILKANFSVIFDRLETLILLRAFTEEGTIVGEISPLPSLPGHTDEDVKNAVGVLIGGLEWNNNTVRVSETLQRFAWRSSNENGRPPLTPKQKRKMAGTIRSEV

With `COC(=O)C1=NN(c2ccccc2)C2C(=O)N(c3ccccc3OC)C(=O)C12` (centres undefined) the EC50 [1] was > 69.5 µM (inactive).
With `CCCC#Cc1ccc2c(c1)O[C@H](CN(C)Cc1ccccn1)[C@H](C)CN([C@@H](C)CO)S2(=O)=O` the AC50 [2] was 3.94 µM (active).
With `CCOC(=O)c1c(C)nn(Cc2cccc(Cl)c2)c1N` the CC50 [3] was > 40 µM (active).
In the case of `Clc1ccc(CNc2ccc(CNc3nc[nH]n3)cc2)c(Cl)c1`, the CC50 [3] is reported as > 40 µM (active).
For `O=C(CCc1c[nH]c2ccccc12)N1CCN(c2ccc(O)cc2)CC1`, the CC50 [3] was > 40 µM (active).
For `COc1ccc(NC(=O)c2ccc(NC(=O)CSc3nc(N)cc(O)n3)cc2)cc1`, the EC50 [1] was 22.4 µM (inactive).
With `CC(=O)Nc1cc(-c2ccc(Cl)cc2)n[nH]1` the EC50 [4] was 1.8 µM (active).
With `COc1ccc(C)cc1N=C(N)Nc1nc(C)cc(C)n1` the EC50 [4] was 3.95 µM (active).
For `COc1ccc(S(=O)(=O)NNC(=O)Cc2csc(C)n2)cc1[N+](=O)[O-]`, the AC50 [5] was 8.98 µM (active) and the IC50 [6] was 16.3 µM (active).
In the case of `CCCc1cc(NCCOCCO)n2c(nc3ccccc32)c1C#N`, the EC50 [1] is reported as > 2.57 µM (active).
In the case of `C[C@@H]1CN([C@H](C)CO)C(=O)c2ccccc2-c2ccccc2CO[C@H]1CN(C)C(=O)[C@H](Cc1ccccc1)N(C)C`, the AC50 [2] is reported as 11.9 µM (active).
With `c1ccc(N=Nc2ccc3cccccc2-3)cc1` the IC50 [7] was 24.5 µM (active), the IC50 [8] was 10.8 µM (active) and the EC50 [9] was 1.1 µM (active). The EC50 [10] was 6.29 µM (active), the EC50 [11] was > 120 µM (not active) and the EC50 [12] was 0.771 µM (active). The IC50 [13] was 13.9 µM (active), the EC50 [14] was > 67.5 µM (inactive) and the IC50 [15] was 22.3 µM (active). The EC50 [16] was > 67.5 µM (inactive), the IC50 [17] was 4.59 µM (active) and the EC50 [18] was > 350 µM (not active).
